Experimental data as given in ChEMBL document CHEMBL5143697, “Phenethoxy Derivatives with Anti-inflammatory Activities from the Betelnut Endophytic Trichoderma asperellum G10” (J Nat Prod, 2022).

Tested on: RAW264.7
Test: Antiinflammatory activity against mouse RAW264.7 cells assessed as inhibition of LPS-induced NO production preincubated for 1 hr followed by LPS stimulation and measured after 36 hrs by Griess reagent based assay
Format: functional, cell-based

IC50: 48.3 µM
Compound: C[C@@H]1[C@H](OCCc2ccccc2)O[C@H](C)[C@H]1CO
